Assay results published in ChEMBL document CHEMBL1127868, “Synthesis and In Vitro evaluation of fused ring heterocyle-containing angiotensin II antagonists” (Bioorg Med Chem Lett, 1994).

How the values were obtained:
[1] = molecular target: T1, Type-1 angiotensin II receptor (Oryctolagus cuniculus, UniProt P34976); assay: pA2 value determined in vitro against angiotensin II receptor, type 1 using rabbit aortic rings; details: read-out: pA2 (converted)
T1 sequence (P34976 whole entry): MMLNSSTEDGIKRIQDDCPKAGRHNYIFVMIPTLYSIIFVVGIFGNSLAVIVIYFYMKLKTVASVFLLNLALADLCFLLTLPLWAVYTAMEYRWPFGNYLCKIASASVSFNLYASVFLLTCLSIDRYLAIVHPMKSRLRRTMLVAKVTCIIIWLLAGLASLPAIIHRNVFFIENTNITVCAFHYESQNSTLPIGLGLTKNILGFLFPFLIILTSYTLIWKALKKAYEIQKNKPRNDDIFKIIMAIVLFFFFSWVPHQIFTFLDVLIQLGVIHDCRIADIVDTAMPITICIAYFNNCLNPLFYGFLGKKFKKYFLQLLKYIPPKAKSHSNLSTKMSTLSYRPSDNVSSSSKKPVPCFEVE

Rattus norvegicus = assay: Dose (po) required to normalize blood pressure in renal artery-ligated rats; format: functional

| Compound | Kb [1] | Dose (Rattus norvegicus) |
| --- | --- | --- |
| CCCCN(Cc1ccc(-c2ccccc2-c2nnn[nH]2)cc1)c1ncnc2nccnc12 | 115 nM | – |
| CCCN(Cc1ccc(-c2ccccc2-c2nn[nH]n2)cc1)c1ncnc2ncn(C)c12 | 933 nM | – |
| CCCCN(Cc1ccc(-c2ccccc2-c2nn[nH]n2)cc1)c1ncnc2c1nc([S+](C)[O-])n2C (stereo not given) | 41.7 nM | – |
| CCCCN(Cc1ccc(-c2ccccc2-c2nn[nH]n2)cc1)c1ncnc2c1nc(C)n2C | 9.33 nM | – |
| CCCCN(Cc1ccc(-c2ccccc2-c2nnn[nH]2)cc1)c1ncnc2ccc(OC)cc12 | 47.9 nM | – |
| CCCN(Cc1ccc(-c2ccccc2-c2nnn[nH]2)cc1)c1ncnc2cccc(C(=O)OC)c12 | > 100 nM | – |
| CCCCN(Cc1ccc(-c2ccccc2-c2nn[nH]n2)cc1)c1ncnc2c1nnn2C | 10.7 nM | – |
| CCCCN(Cc1ccc(-c2ccccc2-c2nnn[nH]2)cc1)c1ncnc2c1nc(C(N)=O)n2C | > 100 nM | – |
| CCCCN(Cc1ccc(-c2ccccc2-c2nn[nH]n2)cc1)c1[nH]cnc2nc(C)nc1-2 | 7.76 nM | – |
| CCCN(Cc1ccc(-c2ccccc2-c2nn[nH]n2)cc1)c1[nH]cnc2nncc1-2 | 339 nM | – |
| CCc1nc(N(C)Cc2ccc(-c3ccccc3-c3nn[nH]n3)cc2)c2cc(OC)ccc2n1 | 47.9 nM | – |
| CCCCN(Cc1ccc(-c2ccccc2-c2nn[nH]n2)cc1)c1ncnc2c1ncn2C | 8.32 nM | – |
| CCc1nc(NCc2ccc(-c3ccccc3-c3nn[nH]n3)cc2)c2cc(C(=O)O)ccc2n1 | 2.57 nM | – |
| CCc1nc(NCc2ccc(-c3ccccc3-c3nnn[nH]3)cc2)c2c(OC)cccc2n1 | 8.51 nM | – |
| CCCCN(Cc1ccc(-c2ccccc2-c2nn[nH]n2)cc1)c1ncnc2c1nc(O)n2C | 29.5 nM | – |
| CCCN(Cc1ccc(-c2ccccc2-c2nnn[nH]2)cc1)c1ncnc2cccc(C(=O)O)c12 | > 100 nM | – |
| CCc1nc(NCc2ccc(-c3ccccc3-c3nn[nH]n3)cc2)c2cc(OC)ccc2n1 | 2.63 nM | – |
| CCCN(Cc1ccc(-c2ccccc2-c2nn[nH]n2)cc1)c1ncncc1C(=O)O | 0.117 nM | – |
| CCc1nc(NCc2ccc(-c3ccccc3-c3nn[nH]n3)cc2)c2ccccc2n1 | 2.95 nM | – |
| CCc1nc(NCc2ccc(-c3ccccc3-c3nnn[nH]3)cc2)c2ncn(C)c2n1 | 5.13 nM | – |

| Compound | Kb [1] | Dose (Rattus norvegicus) |
| --- | --- | --- |
| CCCCN(Cc1ccc(-c2ccccc2-c2nnn[nH]2)cc1)c1ncnc2ccc(C(=O)O)cc12 | 9.55 nM | – |
| CCCCN(Cc1ccc(-c2ccccc2-c2nn[nH]n2)cc1)c1ncnc2c1nc(C#N)n2C | 72.4 nM | – |
| CCCN(Cc1ccc(-c2ccccc2-c2nnn[nH]2)cc1)c1ncnc2[nH]cnc12 | 12 nM | – |
| CCCCN(Cc1ccc(-c2ccccc2-c2nnn[nH]2)cc1)c1ncnc2cc(C(=O)O)ccc12 | 35.5 nM | – |
| CCCCN(Cc1ccc(-c2ccccc2-c2nn[nH]n2)cc1)c1ncnc2ccc(C(=O)OC)cc12 | 107 nM | – |
| CCCCN(Cc1ccc(-c2ccccc2-c2nn[nH]n2)cc1)c1ncnc2c1nc(S(C)(=O)=O)n2C | > 100 nM | – |
| CCCN(Cc1ccc(-c2ccccc2-c2nn[nH]n2)cc1)c1ncnc2c1ncn2Cc1ccccc1 | 151 nM | – |
| CCCN(Cc1ccc(-c2ccccc2-c2nnn[nH]2)cc1)c1ncnc2ncn(CC(=O)O)c12 | 74.1 nM | – |
| CCCCN(Cc1ccc(-c2ccccc2-c2nnn[nH]2)cc1)c1ncnc2nc[nH]c12 | 6.76 nM | – |
| CCCCN(Cc1ccc(-c2ccccc2-c2nnn[nH]2)cc1)c1ncnc2c1nc(CC)n2C | 30.2 nM | – |
| CCCCN(Cc1ccc(-c2ccccc2-c2nnn[nH]2)cc1)c1ncnc2c1nc(-c1ccccc1)n2C | > 100 nM | – |
| CCc1nc(NCc2ccc(-c3ccccc3-c3nn[nH]n3)cc2)c2c[nH]nc2n1 | 138 nM | – |
| CCCCN(Cc1ccc(-c2ccccc2-c2nn[nH]n2)cc1)c1ncnc2ccc(C(=O)O)nc12 | 6.46 nM | – |
| CCCN(Cc1ccc(-c2ccccc2-c2nn[nH]n2)cc1)c1ncnc2oc(C)nc12 | 97.7 nM | – |
| CCCN(Cc1ccc(-c2ccccc2-c2nn[nH]n2)cc1)c1ncccc1C(=O)O | 0.0501 nM | 0.3 mg/kg |
| CCCN(Cc1ccc(-c2ccccc2-c2nn[nH]n2)cc1)c1ncnc2cccc(OC)c12 | > 100 nM | – |
| CCCCN(Cc1ccc(-c2ccccc2-c2nnn[nH]2)cc1)c1ncnc2cccnc12 | 776 nM | – |
| CCCCN(Cc1ccc(-c2ccccc2-c2nn[nH]n2)cc1)c1ncnc2ccc(O)cc12 | 87.1 nM | – |
| CCCN(Cc1ccc(-c2ccccc2-c2nnn[nH]2)cc1)c1ncnc2c1ncn2CC(=O)O | 7.24 nM | – |
